Assay results: patent US11806342B2, “Diiodohydroxyquinoline for the treatment of clostridium difficile infection” (Purdue Research Foundation, priority 2019, dated 2023)
In brackets after ≈: the same amount, converted by molar mass.

Columns and labels:
Assay type in all cases: cell-based, Clostridium difficile
[1] = tested on: C. difficile ATCC 1801; assay: MIC and MBC, broth microdilution; details: Clostridioides difficile, ATCC1801
Method: (§1) Antibacterial activity of Diiodohydroxyquinoline against a wide panel of Clostridium difficile strains. […] MIC50 and MIC90 are the minimum concentration of each agent that inhibited growth of 50% and 90% of the tested isolates, respectively. The minimum bactericidal concentration (MBC) of these drugs was tested by plating 5 μL from wells with no growth onto BHIS agar plates. The MBC was categorized as the lowest concentration that reduced bacterial growth by 99.9% MIC50 and MIC90 are the minimum concentration of each agent that inhibited the growth of 50% and 90% of the tested isolates, respectively. The minimum bactericidal concentration (MBC) of these drugs was tested by plating 5 μL from wells with no growth onto BHIS agar plates. The MBC was categorized as the lowest concentration that reduced bacterial growth by 99.9% [29-31].

[2] = tested on: C. difficile ATCC 43255; assay: MIC and MBC, broth microdilution; details: Clostridioides difficile, ATCC43255
Method: as §1

[3] = tested on: C. difficile HM-745; assay: MIC and MBC, broth microdilution; details: Clostridioides difficile, HM745
Method: as §1

[4] = tested on: C. difficile I10; assay: MIC and MBC, broth microdilution; details: Clostridioides difficile, I10
Method: as §1

[5] = tested on: C. difficile I11; assay: MIC and MBC, broth microdilution; details: Clostridioides difficile, I11
Method: as §1

[6] = tested on: C. difficile I13; assay: MIC and MBC, broth microdilution; details: Clostridioides difficile, I13
Method: as §1

[7] = tested on: C. difficile I6; assay: MIC and MBC, broth microdilution; details: Clostridioides difficile, I6
Method: as §1

[8] = tested on: C. difficile I9; assay: MIC and MBC, broth microdilution; details: Clostridioides difficile, I9
Method: as §1

[9] = tested on: C. difficile NR-49278; assay: MIC and MBC, broth microdilution; details: Clostridioides difficile, NR49278
Method: as §1

[10] = tested on: C. difficile NR-49285; assay: MIC and MBC, broth microdilution; details: Clostridioides difficile, NR49285
Method: as §1

[11] = tested on: C. difficile NR-49288; assay: MIC and MBC, broth microdilution; details: Clostridioides difficile, NR49288
Method: as §1

[12] = tested on: C. difficile P15; assay: MIC and MBC, broth microdilution; details: Clostridioides difficile, P15
Method: as §1

[13] = tested on: C. difficile P19; assay: MIC and MBC, broth microdilution; details: Clostridioides difficile, P19
Method: as §1

[14] = tested on: C. difficile P20; assay: MIC and MBC, broth microdilution; details: Clostridioides difficile, P20
Method: as §1

[15] = tested on: C. difficile P30; assay: MIC and MBC, broth microdilution; details: Clostridioides difficile, P30
Method: as §1

[16] = tested on: C. difficile P3; assay: MIC and MBC, broth microdilution; details: Clostridioides difficile, P3
Method: as §1

[17] = tested on: C. difficile P5; assay: MIC and MBC, broth microdilution; details: Clostridioides difficile, P5
Method: as §1

[18] = tested on: C. difficile P6; assay: MIC and MBC, broth microdilution; details: Clostridioides difficile, P6
Method: as §1

[19] = tested on: C. difficile ATCC 43255; assay: Spore inhibition assay; details: C. difficile ATCC 43255, ½×MIC or 1×MIC, five days
Method: (§2) The spore inhibition assay was performed as described in previous reports to investigate the effect of diiodohydroxyquinoline on C. difficile spore formation. Briefly, […], the bacterial suspension was split into microcentrifuge tubes and drugs were added (in triplicates) at concentrations equal to ½×MIC or 1×MIC. Tubes were then, incubated anaerobically for five days at 37° C. Thereafter, an aliquot from each tube was diluted and plated on BHIS agar plates supplemented with 0.1% taurocholic acid, to count the total bacterial counts (vegetative bacteria+spores). The remaining solution was centrifuged, and the pellet was suspended in PBS, stored overnight at 4° C., and subsequently shock-heated at 70° C. for 30 minutes to kill the vegetative cells. The resulting solution was serially diluted and plated to determine the heat-resistant spore counts. Spore inhibition assay was performed as described in previous reports to investigate the effect of DIHQ on C. difficile spore formation. Briefly, log-phase cultures of C. difficile strains (ATCC BAA-1870, ATCC 43255, and NR-49277) were diluted in BHIS to an initial density of ˜10^6 CFU/mL. Afterwards, the bacterial suspension was split in small tubes and the drugs were added (in triplicates) at concentrations equal to ½×MIC or 1×MIC. Tubes were then incubated anaerobically for 5 days at 37° C. After that, an aliquot from each tube was diluted and plated on BHIS agar plates supplemented with 0.1% taurocholic acid, to count the total bacterial count (vegetative bacteria+spores). The remaining solution was centrifuged, and the pellet was suspended in PBS and stored overnight at 4° C. then shock heated at 70° C. for 30 minutes to kill the vegetative cells. The resulting solution was serially diluted and plated to determine the heat-resistant spore counts.

[20] = tested on: C. difficile ATCC BAA-1870; assay: Spore inhibition assay; details: C. difficile ATCC BAA-1870, ½×MIC or 1×MIC, five days
Method: as §2

[21] = tested on: C. difficile NR-49277; assay: Spore inhibition assay; details: C. difficile NR-49277, ½×MIC or 1×MIC, five days
Method: as §2

SMILES: CN[C@H](CC(C)C)C(=O)N[C@H]1C(=O)N[C@@H](CC(N)=O)C(=O)N[C@H]2C(=O)N[C@H]3C(=O)N[C@H](C(=O)N[C@H](C(=O)O)c4cc(O)cc(O)c4-c4cc3ccc4O)[C@H](O)c3ccc(c(Cl)c3)Oc3cc2cc(c3O[C@@H]2O[C@H](CO)[C@@H](O)[C@H](O)[C@H]2O[C@H]2C[C@](C)(N)[C@H](O)[C@H](C)O2)Oc2ccc(cc2Cl)[C@H]1O [Vancomycin, vancomycin]
- MBC [1]: 1 µg/mL (≈ 0.69 µM)
- MIC [1]: 1 µg/mL (≈ 0.69 µM)
- MBC [2]: 1 µg/mL (≈ 0.69 µM)
- MIC [2]: 1 µg/mL (≈ 0.69 µM)
- MBC [3]: 1 µg/mL (≈ 0.69 µM)
- MIC [3]: 1 µg/mL (≈ 0.69 µM)
- MBC [4]: 1 µg/mL (≈ 0.69 µM)
- MIC [4]: 0.5 µg/mL (≈ 0.345 µM)
- MBC [5]: 1 µg/mL (≈ 0.69 µM)
- MIC [5]: 1 µg/mL (≈ 0.69 µM)
- MBC [6]: 1 µg/mL (≈ 0.69 µM)
- MIC [6]: 1 µg/mL (≈ 0.69 µM)
- MBC [7]: 0.5 µg/mL (≈ 0.345 µM)
- MIC [7]: 0.5 µg/mL (≈ 0.345 µM)
- MBC [8]: 0.5 µg/mL (≈ 0.345 µM)
- MIC [8]: 0.5 µg/mL (≈ 0.345 µM)
- MBC [9]: 0.5 µg/mL (≈ 0.345 µM)
- MIC [9]: 0.25 µg/mL (≈ 0.173 µM)
- MBC [10]: 0.5 µg/mL (≈ 0.345 µM)
- MIC [10]: 0.5 µg/mL (≈ 0.345 µM)
- MBC [11]: 1 µg/mL (≈ 0.69 µM)
- MIC [11]: 0.5 µg/mL (≈ 0.345 µM)
- MBC [12]: 1 µg/mL (≈ 0.69 µM)
- MIC [12]: 1 µg/mL (≈ 0.69 µM)
- MBC [13]: 1 µg/mL (≈ 0.69 µM)
- MIC [13]: 1 µg/mL (≈ 0.69 µM)
- MBC [14]: 1 µg/mL (≈ 0.69 µM)
- MIC [14]: 1 µg/mL (≈ 0.69 µM)
- MBC [15]: 0.5 µg/mL (≈ 0.345 µM)
- MIC [15]: 0.5 µg/mL (≈ 0.345 µM)
- MBC [16]: 1 µg/mL (≈ 0.69 µM)
- MIC [16]: 1 µg/mL (≈ 0.69 µM)
- MBC [17]: 0.5 µg/mL (≈ 0.345 µM)
- MIC [17]: 0.5 µg/mL (≈ 0.345 µM)
- MBC [18]: 1 µg/mL (≈ 0.69 µM)
- MIC [18]: 1 µg/mL (≈ 0.69 µM)
- reduction in spore count (in words) [19]: almost no reduction
- reduction in spore count (in words) [20]: almost no reduction
- reduction in spore count (in words) [21]: almost no reduction
